Measurements published in ChEMBL document CHEMBL3734669, “Δ(5)-Cholenoyl-amino acids as selective and orally available antagonists of the Eph-ephrin system” (Eur J Med Chem, 2015).
pEC50, pIC50: −log10 of the molar value. ≈ marks a conversion by molar mass, not a printed value. Calls of active or inactive are those of the source. The calls are words filed in the database; no cut-off is given here.

Key:
Ephrin type-A receptor 2 [1] = biological target: T1, Ephrin type-A receptor 2 (Homo sapiens, UniProt P29317); assay: Displacement of biotinylated-ephrin-A1 from EphA2 receptor (unknown origin) up to 100 uM preincubated for 1 hr followed by biotinylated-ephrin-A1-Fc addition measured after 4 hrs by ELISA
T1 sequence (P29317 whole entry): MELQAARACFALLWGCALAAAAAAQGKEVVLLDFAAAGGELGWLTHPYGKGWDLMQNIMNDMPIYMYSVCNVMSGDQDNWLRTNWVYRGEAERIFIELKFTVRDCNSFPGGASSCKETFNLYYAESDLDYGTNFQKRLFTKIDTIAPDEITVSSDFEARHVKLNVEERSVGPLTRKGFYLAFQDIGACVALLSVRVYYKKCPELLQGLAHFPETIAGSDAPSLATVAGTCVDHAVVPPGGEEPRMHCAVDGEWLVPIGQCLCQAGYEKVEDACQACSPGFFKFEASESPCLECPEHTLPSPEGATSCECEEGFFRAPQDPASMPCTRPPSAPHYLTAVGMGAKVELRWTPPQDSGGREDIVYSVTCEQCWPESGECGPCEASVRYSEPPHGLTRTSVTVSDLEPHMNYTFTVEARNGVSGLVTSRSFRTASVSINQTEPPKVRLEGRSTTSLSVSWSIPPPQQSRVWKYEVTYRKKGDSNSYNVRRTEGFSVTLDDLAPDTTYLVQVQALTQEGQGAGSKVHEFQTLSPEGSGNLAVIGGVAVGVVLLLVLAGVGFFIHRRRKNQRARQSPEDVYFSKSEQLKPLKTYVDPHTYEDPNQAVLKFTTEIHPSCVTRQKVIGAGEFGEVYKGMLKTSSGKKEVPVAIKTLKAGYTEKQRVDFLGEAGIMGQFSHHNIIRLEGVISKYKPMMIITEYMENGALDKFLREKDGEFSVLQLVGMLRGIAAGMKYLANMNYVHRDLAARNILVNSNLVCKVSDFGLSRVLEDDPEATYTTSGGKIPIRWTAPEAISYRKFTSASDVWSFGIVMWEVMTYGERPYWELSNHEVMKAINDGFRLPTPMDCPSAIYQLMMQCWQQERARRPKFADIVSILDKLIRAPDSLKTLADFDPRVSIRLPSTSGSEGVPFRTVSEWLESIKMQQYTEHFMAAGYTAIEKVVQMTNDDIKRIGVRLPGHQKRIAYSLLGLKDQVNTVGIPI

[2] = Cytotoxicity against human PC3 cells at 10 to 30 uM after 2 hrs by LDH release assay; type: cell-based; details: pc-3, 2 h
Ephrin type-A receptor 2 [3] = biological target: T1, Ephrin type-A receptor 2; assay: Displacement of biotinylated-ephrin-A1-Fc from EphA2-Fc receptor (unknown origin) preincubated for 1 hr followed by biotinylated-ephrin-A1-Fc addition measured after 4 hrs by ELISA
[4] = Metabolic stability in mouse liver S9 fractions assessed as compound remaining at 1 uM after 1 hr by HPLC-ESI-MS/MS analysis in presence of NADPH regenerating system; type: ADME, subcellular, Liver S9 fraction; details: read-out: Stability
[5] = Metabolic stability in mouse plasma assessed as compound remaining at 1 uM after 24 hrs by HPLC-ESI-MS/MS analysis; type: ADME, cell-free; details: read-out: Stability
[6] = biological target: T2, G-protein coupled bile acid receptor 1 (Homo sapiens, UniProt Q8TDU6); assay: Agonist activity at TGR5 (unknown origin) assessed as cAMP level; type: functional
T2 sequence (Q8TDU6 whole entry): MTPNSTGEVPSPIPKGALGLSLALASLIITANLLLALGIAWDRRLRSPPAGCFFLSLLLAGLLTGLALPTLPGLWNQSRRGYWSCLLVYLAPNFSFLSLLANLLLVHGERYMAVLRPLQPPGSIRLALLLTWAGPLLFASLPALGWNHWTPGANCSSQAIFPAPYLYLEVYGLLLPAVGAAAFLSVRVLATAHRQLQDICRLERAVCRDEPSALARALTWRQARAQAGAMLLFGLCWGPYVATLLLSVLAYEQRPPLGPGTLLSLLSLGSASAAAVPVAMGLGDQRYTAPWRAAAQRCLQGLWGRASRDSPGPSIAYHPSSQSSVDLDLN

[7] = Kinetic solubility of the compound in NaCl solution at 25 deg C after 2 hrs by HPLC-ESI-MS/MS analysis; type: physicochemical; details: read-out: Kinetic_solubility
[8] = AUC (0 to t) in mouse at 30 mg/kg, po administered as single dose by HPLC-MS analysis; type: ADME, organism-based; details: in vivo
[9] = biological target: T3, Nuclear receptor subfamily 1 group I member 2 (Homo sapiens, UniProt O75469); assay: Activation of human recombinant PXR up to 10 uM by alphascreen method
T3 sequence (O75469 whole entry): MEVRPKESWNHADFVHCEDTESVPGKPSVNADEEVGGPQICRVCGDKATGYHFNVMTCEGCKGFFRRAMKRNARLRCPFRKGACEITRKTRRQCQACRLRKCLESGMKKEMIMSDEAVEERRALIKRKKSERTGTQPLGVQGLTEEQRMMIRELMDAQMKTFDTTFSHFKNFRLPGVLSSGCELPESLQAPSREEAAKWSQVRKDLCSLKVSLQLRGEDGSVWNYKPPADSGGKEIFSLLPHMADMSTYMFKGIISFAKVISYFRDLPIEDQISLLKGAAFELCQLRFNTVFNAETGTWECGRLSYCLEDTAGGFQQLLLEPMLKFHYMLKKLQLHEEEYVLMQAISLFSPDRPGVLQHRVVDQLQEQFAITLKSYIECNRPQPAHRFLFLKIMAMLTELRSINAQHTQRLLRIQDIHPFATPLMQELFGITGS

[10] = n-octanol-water distribution coefficient, log D of the compound at pH 7.4 after 4 hrs by shake-flask method; type: physicochemical
[11] = Cmax in mouse at 30 mg/kg, po administered as single dose by HPLC-MS analysis; type: ADME, organism-based; parameters: dose 30 mg/kg, route oral; details: in vivo

In the case of CSCC[C@H](NC(=O)CC[C@@H](C)[C@H]1CC[C@H]2[C@@H]3CC=C4C[C@@H](O)CC[C@]4(C)[C@H]3CC[C@]12C)C(=O)O, the inhibition (Ephrin type-A receptor 2 [1]) was “inactive”.

With COC(=O)[C@H](Cc1c[nH]c2ccccc12)NC(=O)CC[C@@H](C)[C@H]1CC[C@H]2[C@@H]3CC=C4C[C@@H](O)CC[C@]4(C)[C@H]3CC[C@]12C the inhibition (Ephrin type-A receptor 2 [1]) was “inactive”.

With C[C@H](CCC(=O)NCC(=O)O)[C@H]1CC[C@H]2[C@@H]3CC=C4C[C@@H](O)CC[C@]4(C)[C@H]3CC[C@]12C the inhibition (Ephrin type-A receptor 2 [1]) was “inactive”.

In the case of C[C@H](CCC(=O)N[C@@H](Cc1c[nH]c2ccc(O)cc12)C(=O)O)[C@H]1CC[C@H]2[C@@H]3CC=C4C[C@@H](O)CC[C@]4(C)[C@H]3CC[C@]12C, the Activity [2] was “Non-toxic”.

Compound C[C@H](CCC(=O)O)[C@H]1CC[C@H]2[C@@H]3CC=C4C[C@@H](O)CC[C@]4(C)[C@H]3CC[C@]12C has a pIC50 (Ephrin type-A receptor 2 [3]) of 4.40.

C[C@H](CCC(=O)N[C@H](CC(=O)O)Cc1c[nH]c2ccccc12)[C@H]1CC[C@H]2[C@@H]3CC[C@@H]4C[C@H](O)CC[C@]4(C)[C@H]3CC[C@]12C gave a remaining at 1 h, 1 µM [4] of 56%, a remaining at 24 h, 1 µM [5] of 98.3% and a pEC50 [6] of 5.40. It also gave a solubility kinetic at 2 h [7] of 31.8 µM (≈ 18.3 µg/mL), an AUC(0-t) [8] of 21.2 ng·h/mL and an Activity [9] of 30%. It also gave a logD at 4 h [10] of 4.9 and a Cmax [11] of 14 nM.

With C[C@H](CCC(=O)N[C@@H](Cc1ccccc1)C(=O)O)[C@H]1CC[C@H]2[C@@H]3CC=C4C[C@@H](O)CC[C@]4(C)[C@H]3CC[C@]12C the pIC50 (Ephrin type-A receptor 2 [3]) was < 4.00.

In the case of C[C@H](CCC(=O)N[C@@H](CO)C(=O)O)[C@H]1CC[C@H]2[C@@H]3CC=C4C[C@@H](O)CC[C@]4(C)[C@H]3CC[C@]12C, the pIC50 (Ephrin type-A receptor 2 [3]) was < 4.00.
